{"source": "paper PMC6606765", "about": "“Stargazin and γ4 slow the channel opening and closing rates of GluA4 AMPA receptors” (Scientific Reports, 2019)", "key": {"GluA4/γ4 [1]": {"biological_target": "T1, GluA4/γ4 (Rattus norvegicus, UniProt P19493)", "T1 construct": "expressed in transfected cells; host or cells: HEK-293S", "T1 sequence (P19493 21-902 isoform P19493-2 limits assumed)": "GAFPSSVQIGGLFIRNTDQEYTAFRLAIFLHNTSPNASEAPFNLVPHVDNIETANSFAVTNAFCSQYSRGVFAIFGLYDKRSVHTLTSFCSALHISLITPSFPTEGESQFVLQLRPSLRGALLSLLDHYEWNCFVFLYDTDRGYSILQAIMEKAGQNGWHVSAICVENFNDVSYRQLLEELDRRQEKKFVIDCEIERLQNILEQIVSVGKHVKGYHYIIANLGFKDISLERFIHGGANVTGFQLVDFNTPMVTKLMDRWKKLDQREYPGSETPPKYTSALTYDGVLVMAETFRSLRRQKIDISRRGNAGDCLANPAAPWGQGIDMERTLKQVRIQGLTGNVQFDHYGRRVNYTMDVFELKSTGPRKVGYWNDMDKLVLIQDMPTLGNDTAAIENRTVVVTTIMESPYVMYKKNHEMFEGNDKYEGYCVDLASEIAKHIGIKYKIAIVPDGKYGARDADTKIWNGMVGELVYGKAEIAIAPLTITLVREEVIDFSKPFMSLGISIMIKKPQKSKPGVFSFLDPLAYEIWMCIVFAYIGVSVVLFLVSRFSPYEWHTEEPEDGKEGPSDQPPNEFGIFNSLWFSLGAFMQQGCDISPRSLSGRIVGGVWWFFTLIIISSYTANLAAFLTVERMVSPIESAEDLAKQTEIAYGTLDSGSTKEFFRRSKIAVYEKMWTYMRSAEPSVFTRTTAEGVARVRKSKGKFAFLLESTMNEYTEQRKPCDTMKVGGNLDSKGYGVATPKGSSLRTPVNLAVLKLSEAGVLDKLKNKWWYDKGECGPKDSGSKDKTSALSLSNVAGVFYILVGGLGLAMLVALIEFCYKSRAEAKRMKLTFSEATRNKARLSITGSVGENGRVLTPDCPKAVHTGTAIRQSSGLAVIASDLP", "assay": "Laser-pulse photolysis of caged glutamate with whole-cell current recording (channel-opening kinetics)", "type": "cell-based", "protocol": "(§1) The γ-2 and γ-4 plasmids were generously provided by Prof. Susumu Tomita. The flip isoform of GluA4[30] with and without a TARP was transiently expressed in HEK-293S cell. The tissue culture and transfection procedure were described before. In brief, HEK-293S cells were cultured in Dulbecco’s modified Eagle’s medium supplemented with 10% fetal bovine serum, 100 U/mL penicillin, and 100 μg/mL streptomycin in a 37 °C, 6% CO2, humidified incubator. In co-transfecting a TARP, we used 1:1 and 1:2 weight ratio of the plasmid of GluA4 to a TARP (GluA4 plasmid was 3–6 μg/35 mm dish). Co-transfection also included green fluorescent protein (GFP) and large T-antigen (TAg)[46]. We also added a 2,3-benzodiazepine inhibitor[47] after transfection to prevent cell toxicity due to transfection of TARP. Transfected cells were grown for >48 h before recording.\n(§2) Briefly, the pipet solution or internal solution contained (in mM) 110 CsF, 30 CsCl, 4 NaCl, 0.5 CaCl2, 5 EGTA, and 10 HEPES (pH 7.4 adjusted by NaOH). The external cellular solution or bath solution contained (in mM) 150 NaCl, 3 KCl, 1 CaCl2, 1 MgCl2, and 10 HEPES (pH 7.4 adjusted by NaOH)[46]. The GFP fluorescence in transfected cells was visualized on an Axiovert S100 microscope with a fluorescent detection system from Carl Zeiss. The whole-cell current was recorded using an Axopatch-200B amplifier at a cutoff frequency of 2–20 kHz by a built-in, four-pole Bessel filter and digitized at 5–50 kHz sampling frequency using an Axon Digidata 1322 A. Unless otherwise noted, all experiments were performed with transfected HEK-293S cells voltage-clamped at −60 mV and at 22 °C.\n(§3) The laser-pulse photolysis technique was used to measure the channel-opening kinetic constants of an AMPA receptor, as we previously reported. […] A Minilite II pulsed Q-switched Nd:YAG laser (Continuum, Santa Clara, CA) delivered single pulses at 355 nm with a pulse length of 8 ns.\n(§4) The kop and kcl values were determined from the rising phase of a whole-cell current trace in a laser-pulse photolysis experiment. […] The observed first-order rate constant of channel opening, kobs, was estimated by using Eq. 22 It=Imax(1−e^−kobst) where It and Imax represent the whole-cell current amplitude at time t, and the maximum current amplitude, respectively. Based on the general mechanism of channel opening, Eq. 3 was derived to describe the relationship between kobs and ligand concentration:3 kobs=kcl+kop(L/L+K1)^n\n(§5) In deriving Eq. 3, we assumed the rate of ligand binding was fast relative to the rate of channel opening."}, "GluA4/γ2 [2]": {"biological_target": "T2, GluA4/γ2 (Rattus norvegicus, UniProt P19493)", "T2 construct": "expressed in transfected cells; host or cells: HEK-293S", "T2 sequence (P19493 21-902 isoform P19493-2 limits assumed)": "as above", "assay": "Laser-pulse photolysis of caged glutamate with whole-cell current recording (channel-opening kinetics)", "type": "cell-based", "protocol": "as §1, §2, §3, §4, §5"}, "GluA4 homomeric channels [3]": {"biological_target": "T3, GluA4 homomeric channels (Rattus norvegicus, UniProt P19493)", "T3 construct": "expressed in transfected cells; host or cells: HEK-293S", "T3 sequence (P19493 21-902 isoform P19493-2 limits assumed)": "as above", "assay": "Laser-pulse photolysis of caged glutamate with whole-cell current recording (channel-opening kinetics)", "type": "cell-based", "details": "linear fit of kobs vs glutamate concentration, Eq. 3, ±SEM", "protocol": "as §1, §2, §3, §4, §5"}, "GluA4 homomeric channels [4]": {"biological_target": "T3, GluA4 homomeric channels", "design": "method as in PMID 15823042", "details": "GluA4 alone; cited from earlier work"}, "GluA4/γ4 [5]": {"biological_target": "T1, GluA4/γ4", "assay": "Whole-cell current recording with fast solution flow (dose-response, desensitization) in transfected HEK-293 cells", "type": "cell-based", "protocol": "as §1, §2, §3\n(§6) Based on this general, minimal mechanism of channel opening, Eq. 1 was derived. In Eq. 1, IA is the observed amplitude of macroscopic current amplitude, IM is the current per mole of receptor, RM the number of moles of receptors on the cell surface, and Φ^−1 the channel opening equilibrium constant. A non-linear regression was performed to determine K1, along with other parameters, from a dose-response relationship. Each of the current traces was corrected for desensitization before it was used in calculating dose-response relationship[48].1 IA=IMRML^n/L^n+Φ(L+K1)^n"}, "GluA4/γ2 [6]": {"biological_target": "T2, GluA4/γ2", "assay": "Whole-cell current recording with fast solution flow (dose-response, desensitization) in transfected HEK-293 cells", "type": "cell-based", "protocol": "as §1, §2, §3, §6"}, "GluA4 homomeric channels [7]": {"biological_target": "T3, GluA4 homomeric channels", "assay": "Whole-cell current recording with fast solution flow (dose-response, desensitization) in transfected HEK-293 cells", "type": "cell-based", "protocol": "as §1, §2, §3, §6"}, "[8]": {"details": "Table S3A nonlinear fitting, kcl fixed 900 s-1"}, "[9]": {"details": "Table S3A nonlinear fitting, kcl fixed 1100 s-1"}, "[10]": {"details": "Table S3A nonlinear fitting, kcl fixed 1300 s-1"}, "[11]": {"details": "linear fit of kobs vs glutamate concentration, Eq. 3, ±SEM"}, "[12]": {"details": "Table S2A nonlinear fitting, kcl fixed 1000 s-1"}, "[13]": {"details": "Table S2A nonlinear fitting, kcl fixed 1200 s-1"}, "[14]": {"details": "Table S2A nonlinear fitting, kcl fixed 1400 s-1"}, "[15]": {"details": "best fit of dose-response with Eq. 1"}, "[16]": {"details": "mean ±SD, saturated whole-cell responses evoked by 10 and 20 mM glutamate, HEK-293S, −60 mV, 22 °C"}}, "note": "Several values for one entry are separate records, joined by “and”; a condition that tells them apart may be missing. Equal values may be shown once."}
{"compound": "N[C@@H](CCC(=O)O)C(=O)O", "note": "[glutamate]", "values": [{"measurement": "Popen (channel-opening probability)", "setting": "GluA4/γ4 [1]; Popen = kop/(kop + kcl)", "value": "~ 0.93"}, {"measurement": "kop, final output Ave.", "setting": "GluA4/γ4 [1]; [8]", "value": 16862, "unit": "s⁻¹"}, {"measurement": "n, final output Ave.", "setting": "GluA4/γ4 [1]; [8]", "value": 1.99}, {"measurement": "kop, final output Ave.", "setting": "GluA4/γ4 [1]; [9]", "value": 16375, "unit": "s⁻¹"}, {"measurement": "n, final output Ave.", "setting": "GluA4/γ4 [1]; [9]", "value": 2.20}, {"measurement": "kop, final output Ave.", "setting": "GluA4/γ4 [1]; [10]", "value": 15640, "unit": "s⁻¹"}, {"measurement": "n, final output Ave.", "setting": "GluA4/γ4 [1]; [10]", "value": 2.41}, {"measurement": "kop, final output Ave.", "setting": "GluA4/γ4 [1]; Table S3B nonlinear fitting, n fixed 2, kcl fixed 900 s-1", "value": 15152, "unit": "s⁻¹"}, {"measurement": "kop, final output Ave.", "setting": "GluA4/γ4 [1]; Table S3B nonlinear fitting, n fixed 2, kcl fixed 1100 s-1", "value": 13642, "unit": "s⁻¹"}, {"measurement": "kop, final output Ave.", "setting": "GluA4/γ4 [1]; Table S3B nonlinear fitting, n fixed 2, kcl fixed 1300 s-1", "value": 11557, "unit": "s⁻¹"}, {"measurement": "kcl (channel-closing rate constant)", "setting": "GluA4/γ4 [1]; [11]", "value": "1.1 ± 0.1 x 10^3 s^−1 and 1.08 ± 0.05 x 10^3 s^−1"}, {"measurement": "kop (channel-opening rate constant)", "setting": "GluA4/γ4 [1]; [11]", "value": "1.7 ± 0.2 x10^4 s^−1 and 1.70 ± 0.15 x10^4 s^−1"}, {"measurement": "Popen (channel-opening probability)", "setting": "GluA4/γ2 [2]; Popen = kop/(kop + kcl)", "value": "~ 0.93"}, {"measurement": "kop, final output Ave.", "setting": "GluA4/γ2 [2]; [12]", "value": 17591, "unit": "s⁻¹"}, {"measurement": "n, final output Ave.", "setting": "GluA4/γ2 [2]; [12]", "value": 1.59}, {"measurement": "kop, final output Ave.", "setting": "GluA4/γ2 [2]; [13]", "value": 19225, "unit": "s⁻¹"}, {"measurement": "n, final output Ave.", "setting": "GluA4/γ2 [2]; [13]", "value": 1.88}, {"measurement": "kop, final output Ave.", "setting": "GluA4/γ2 [2]; [14]", "value": 22936, "unit": "s⁻¹"}, {"measurement": "n, final output Ave.", "setting": "GluA4/γ2 [2]; [14]", "value": 2.11}, {"measurement": "kop, final output Ave.", "setting": "GluA4/γ2 [2]; Table S2B nonlinear fitting, n fixed 2, kcl fixed 1000 s-1", "value": 15488, "unit": "s⁻¹"}, {"measurement": "kop, final output Ave.", "setting": "GluA4/γ2 [2]; Table S2B nonlinear fitting, n fixed 2, kcl fixed 1200 s-1", "value": 15607, "unit": "s⁻¹"}, {"measurement": "kop, final output Ave.", "setting": "GluA4/γ2 [2]; Table S2B nonlinear fitting, n fixed 2, kcl fixed 1400 s-1", "value": 18961, "unit": "s⁻¹"}, {"measurement": "kcl (channel-closing rate constant)", "setting": "GluA4/γ2 [2]; [11]", "value": "1.2 ± 0.1 x 10^3 s^−1 and 1.17 ± 0.11 x 10^3 s^−1"}, {"measurement": "kop (channel-opening rate constant)", "setting": "GluA4/γ2 [2]; [11]", "value": "1.3 ± 0.1 x10^4 s^−1 and 1.32 ± 0.12 x10^4 s^−1"}, {"measurement": "kcl (channel-closing rate constant)", "setting": "GluA4 homomeric channels [3]", "value": "3.4 ± 0.1 x 10^3 s^−1 and 3.39 ± 0.11 x 10^3 s^−1"}, {"measurement": "kop (channel-opening rate constant)", "setting": "GluA4 homomeric channels [3]", "value": "6.4 ± 0.4 x10^4 s^−1 and 6.41 ± 0.44 x10^4 s^−1"}, {"measurement": "Popen (channel-opening probability)", "setting": "GluA4 homomeric channels [4]", "value": 0.96}, {"measurement": "Φ (Φ^−1 = channel opening equilibrium constant)", "setting": "GluA4/γ4 [5]; [15]", "value": "0.39 ± 1.36"}, {"measurement": "Hill Coefficient", "setting": "GluA4/γ4 [5]; dose-response curve", "value": "1.08 ± 0.10"}, {"measurement": "kdes (maximum desensitization rate constant)", "setting": "GluA4/γ4 [5]; [16]", "value": "90 ± 12", "unit": "s⁻¹"}, {"measurement": "Φ (Φ^−1 = channel opening equilibrium constant)", "setting": "GluA4/γ2 [6]; [15]", "value": "0.41 ± 0.95"}, {"measurement": "Hill Coefficient", "setting": "GluA4/γ2 [6]; dose-response curve", "value": "1.07 ± 0.14"}, {"measurement": "kdes (maximum desensitization rate constant)", "setting": "GluA4/γ2 [6]; [16]", "value": "135 ± 11", "unit": "s⁻¹"}, {"measurement": "Φ (Φ^−1 = channel opening equilibrium constant)", "setting": "GluA4 homomeric channels [7]; [15]", "value": "0.36 ± 0.88"}, {"measurement": "Hill Coefficient", "setting": "GluA4 homomeric channels [7]; dose-response curve", "value": "2.18 ± 0.21"}, {"measurement": "kdes (maximum desensitization rate constant)", "setting": "GluA4 homomeric channels [7]; [16]", "value": "181 ± 7", "unit": "s⁻¹"}]}
